How the values were obtained:
HDAC (HeLa cell extract) = experiment: Primary assay: deacetylase activity, HeLa cell extract as source of HDAC; format: biochemical, human
Excerpt: Briefly, this assay relies on the release of radioactive acetate from a radioactively labelled histone fragment by the action of HDAC enzyme. Test compounds, which inhibit HDAC, reduce the yield of radioactive acetate. Signal (e.g., scintillation counts) measured in the presence and absence of a test compound provide an indication of that compound's ability to inhibit HDAC activity. Decreased activity indicates increased inhibition by the test compound.
The histone fragment was an N-terminal sequence from histone H4, and it was labelled with radioactively labelled acetyl groups using tritiated acetylcoenzyme A (coA) in conjunction with an enzyme which is the histone acetyltransferase domain of the transcriptional coactivator p300. 0.33 mg of peptide H4 (the N-terminal 20 amino acids of histone H4, synthesized using conventional methods) were incubated with His6-tagged p300 histone acetyltransferase domain (amino acids 1195-1673, expressed in E coli strain BLR(DE3)pLysS (Novagen, Cat. No. 69451-3) and 3H-acetyl coA (10 μL of 3.95 Ci/mmol; from Amersham) in a total volume of 300 μL of HAT buffer (50 mM TrisCl pH 8, 5% glycerol, 50 mM KCl, 0.1 mM ethylenediaminetetraacetic acid (EDTA), 1 mM dithiothreitol (DTT) and 1 mM 4-(2-aminoethyl)-benzenesulfonylfluoride (AEBSF)). The mixture was incubated at 30° C. for 45 min after which the His-p300 was removed using nickel-trinitriloacetic acid agarose (Qiagen, Cat No. 30210). The acetylated peptide was then separated from free acetyl coA by size exclusion chromatography on Sephadex G-15 (Sigma G-15-120), using distilled H2O as the mobile phase.
After purification of the radiolabelled histone fragment, it was incubated with a source of HDAC (e.g., an extract of HeLa cells (a rich source of HDAC), recombinantly produced HDAC1 or HDAC2) and any released acetate was extracted into an organic phase and quantitatively determined using scintillation counting. By including a test compound with the source of HDAC, that compound's ability to inhibit the HDAC was determined.
Two cell volumes of extraction buffer were used, and particulate material was centrifuged out (20800 g, 4° C., 10 min). The supernatant extract having deacetylase activity was aliquotted and frozen for storage.
A source of HDAC (e.g., 2 μL of crude HeLa extract, 5 μL of HDAC1 or HDAC2; in elution buffer, as above) was incubated with 3 μL of radioactively labelled peptide along with appropriate dilutions of candidate compounds (1.5 μL) in a total volume of 150 μL of buffer (20 mM Tris pH 7.4, 10% glycerol). The reaction was carried out at 37° C. for one hour, after which the reaction was stopped by adding 20 μL of 1 M HCl/0.4 M sodium acetate. Then, 750 μL of ethyl acetate was added, the samples vortexed and, after centrifugation (14000 rpm, 5 min), 600 μL from the upper phase were transferred to a vial containing 3 mL of scintillation liquid (UltimaGold, Packard, Cat. No. 6013329). Radioactivity was measured using a Tri-Carb 2100TR Liquid Scintillation Analyzer (Packard).
Percent activity (% activity) for each test compound was calculated as: % activity={(S^C−B)/(S^o−B)}×100 wherein S^c denotes signal measured in the presence of enzyme and the compound being tested, S^o denotes signal measured in the presence of enzyme but in the absence of the compound being tested, and B denotes the background signal measured in the absence of both enzyme and compound being tested.

HeLa cells = experiment: Secondary assay: cell proliferation WST-1, HeLa; format: cell-based; details: Homo sapiens, 48 h, read-out: Cell Proliferation Inhibition WST-1 IC50, HeLa
Method: (§1) Compounds with HDAC inhibition activity, as determined using the primary assay, were subsequently evaluated using secondary cell-based assays. The following cell lines were used:
(§2) Cells were plated in 96-well plates at 3-10×10^3 cells/well in 100 μL of culture medium. The following day, different concentrations of candidate compounds were added and the cells incubated at 37° C. for 48 h. Subsequently, 10 μL/well of WST-1 reagent was added and the cells reincubated for 1 hour. After the incubation time, absorbance was measured.
(§3) WST-1 is a tetrazolium salt which is cleaved to formazan dye by cellular enzymes. […] The formazan dye produced is quantified by a scanning multiwell spectrophotometer by measuring the absorbance of the dye solution at 450 nm wavelength (reference wavelength 690 nm).
(§4) Percent activity (% activity) in reducing the number of viable cells was calculated for each test compound as: % activity={(S^C−B)/(S^o−B)}×100 wherein S^C denotes signal measured in the presence of the compound being tested, S^o denotes signal measured in the absence of the compound being tested, and B denotes the background signal measured in blank wells containing medium only. […] IC50 values were calculated using the software package Prism 3.0 (GraphPad Software Inc., San Diego, Calif.), setting top value at 100 and bottom value at 0.

[1] = system: K11 HPV E7 transformed human keratinocyte line; experiment: Secondary assay: cell proliferation WST-1, K11; format: cell-based; details: K11, 48 h, read-out: Cell Proliferation Inhibition WST-1 IC50, K11
Method: as §1
K11—HPV E7 transformed human keratinocyte line provided by Pidder Jansen-Duerr, Institut für Biomedizinische Alternsforschung, Innsbruck, Austria.
as §2
as §3, with “enzymes. An expansion in the number of viable cells results in an increase in the overall activity of mitochondrial dehydrogenases in the sample.” for “enzymes.”
IC50 values were calculated using the software package Prism 3.0 (GraphPad Software Inc., San Diego, Calif.), setting top value at 100 and bottom value at 0.

JURKAT human T-cell line = experiment: Secondary assay: cell proliferation WST-1, Jurkat; format: cell-based; details: 48 h, read-out: Cell Proliferation Inhibition WST-1 IC50, Jurkat
Method: as §1
JURKAT—Human T-cell line (ATCC no. TIB-152).
as §2, §3, §4

## O=C(/C=C/C=C/c1ccccc1)NCCSCCC(=O)NO [Compound 5, (2E)(4E)-5-Phenylpenta-2,4-dienoic acid [2-(2-hydroxycarbamoylethylsulfanyl)ethyl]amide]
HDAC (HeLa cell extract); @ 500 nM
  HDAC Inhibition, HeLa (percent activity): 74% @ 500 nM
HeLa cells
  IC50: 87 µM

## O=C(/C=C/C=C/c1ccccc1)NCCCOc1ccc(CC(=O)NO)cc1 [Compound 7, (2E,4E)-N-(3-{4-[2-(Hydroxyamino)-2-oxoethyl]phenoxy}propyl)-5-phenyl-2,4-pentadienamide]
HDAC (HeLa cell extract); @ 500 nM
  HDAC Inhibition, HeLa (percent activity): 7% @ 500 nM

## O=C(/C=C/C#Cc1cccc(NS(=O)(=O)c2ccccc2)c1)NO [Oxamflatin, (2E)-5-[3-[(phenylsulfonyl)amino]phenyl]-pent-2-en-4-ynohydroxamic acid, reference compound]
[1]
  IC50: 4.82 µM
JURKAT human T-cell line
  IC50: 0.17 µM

## CN(C)c1ccc(NC(=O)COCC(=O)NO)cc1 [Compound 4]
HDAC (HeLa cell extract); @ 1.0 μM
  HDAC Inhibition, HeLa (percent activity): 0% @ 1 μM

## CC(C)c1ccc(NC(=O)COCC(=O)NO)cc1 [Compound 1]
HDAC (HeLa cell extract); @ 1.0 μM
  HDAC Inhibition, HeLa (percent activity): 16% @ 1.0 μM

## O=C(CCSCCNC(=O)c1ccc2ccccc2c1)NO [Compound 6, E-Naphthalene-2-carboxylic acid [2-(2-hydroxycarbamoylethylsulfanyl)ethyl]amide]
HDAC (HeLa cell extract); @ 500 nM
  HDAC Inhibition, HeLa (percent activity): 43% @ 500 nM

## CN(C)c1ccc(NC(=O)CSCC(=O)NO)cc1 [Compound 2]
HDAC (HeLa cell extract); @ 500 nM
  HDAC Inhibition, HeLa (percent activity): 26% @ 500 nM

## O=C(/C=C/c1ccccc1)Nc1cccc(OCC(=O)NO)c1 [Compound 8, (E)-N-{3-[2-(Hydroxyamino)-2-oxoethoxy]phenyl}-3-phenyl-2-propenamide]
[1]
  IC50: 1.05 µM
JURKAT human T-cell line
  IC50: 12.7 µM
HDAC (HeLa cell extract); unit inferred, read-out: HDAC Inhibition IC50, HeLa
  IC50: 0.75 µM
HeLa cells
  IC50: 25 µM

— US6960685B2 (TopoTarget UK Limited, priority 2000, dated 2005)
